This note sets out measurements from ChEMBL document CHEMBL6153033, “Design and synthesis of N-(3-cyanothiophen-2-yl)-2-phenoxyacetamide-based α-glucosidase inhibitors” (Bioorg Med Chem Lett, 2025).

Structures are written as SMILES. In brackets after ≈: the same amount, converted by molar mass.

Data set [1] addresses T1, Alpha glucosidase (Homo sapiens, UniProt O43451+P10253+P14410+Q2M2H8). Description: Inhibition of alpha-glucosidase (unknown origin) assessed as inhibition rate at 100 uM relative to control. It is filed as protein assay.
Data set [2] has as its target T1, Alpha glucosidase. Description: Inhibition of alpha-glucosidase (unknown origin). It is filed as protein assay.
Data set [3] is described as follows: Inhibition of alpha-amylase (unknown origin). On the set-up: species or system Homo sapiens.
A short description of data set [4]: Cytotoxicity against human LO2 cells by MTT assay. It is filed as toxicity, cell-based, L02. A general note: Tetrazolium dyes change colour on reduction, which living cells bring about.
The nature of data set [5]: Aqueous solubility of compound. It is filed as physicochemical.
Data set [6] can be described thus: Stability in mouse plasma assessed as compound remaining parent compound after 1 hrs. It is filed as ADME, cell-free. The note with it: read-out: Stability.
Data set [7] in a line: Stability in mouse plasma assessed as compound remaining parent compound after 6 hrs. In kind it is ADME, cell-free. The note with it: read-out: Stability.
The nature of data set [8]: Stability in mouse plasma assessed as compound remaining parent compound after 0.5 hrs. The note with it: read-out: Stability. It is filed as ADME, cell-free.
Data set [9] can be described thus: Selectivity index, ratio of IC50 for alpha-amylase (unknown origin) to IC50 for alpha-glucosidase (unknown origin).
Data set [10] addresses T1, Alpha glucosidase. Briefly: Binding affinity to alpha-glucosidase (unknown origin) assessed as decreased in Vmax using p-nitrophenyl glucopyranoside as substrate at 1 to 16 uM by Lineweaver-Burk plot analysis. The note with it: dose 1-16 µM. In kind it is protein assay.
Data set [11] deals with T1, Alpha glucosidase. Description: Binding affinity to alpha-glucosidase (unknown origin) assessed as inhibition constant. It is filed as protein assay.

As to `COc1cc(C=O)ccc1OCC(=O)Nc1sc2c(c1C#N)CCC(O)C2` (centres undefined), the inhibition in data set [1] was determined as 86.5%. In [2], this compound gave an IC50 of 10.35 µM.

As to `Cc1cccc(C=O)c1OCC(=O)Nc1sc2c(c1C#N)CCC(C)C2` (centres undefined), in data set [2], the IC50 was more than 50 µM.

For `Cc1ccc(C=O)c(OCC(=O)Nc2sc3c(c2C#N)CCC(C)C3)c1` (centres undefined), the IC50 in [2] was more than 50 µM.

Take `COC(=O)C1CCCc2sc(NC(=O)COc3ccc(C=O)cc3OC)c(C#N)c21` (centres undefined): the inhibition in data set [1] was determined as 69.8%. Also, the half-inhibitory concentration (IC50) in data set [2] was 60.25 µM.

With `C[C@H]1O[C@H](O[C@H]2[C@H](O)[C@@H](O)[C@@H](O[C@H]3[C@H](O)[C@@H](O)C(O)O[C@@H]3CO)O[C@@H]2CO)[C@H](O)[C@@H](O)[C@@H]1N[C@H]1C=C(CO)[C@@H](O)[C@H](O)[C@H]1O` (some centres undefined) [ACARBOSE], half-maximal inhibition in [3] (IC50) was put at 70 µM. Besides, the CC50 in data set [4] is more than 200 µM.

As for `COc1cc(C=O)ccc1OCC(=O)Nc1sc2c(c1C#N)CCCC2=O`, in data set [1], the inhibition was 45.6%.

For the compound `COc1cc(C=O)ccc1OCC(=O)Nc1sc2c(c1C#N)CCCCC2`, the inhibition in [1] was 7.31%.

In data set [2], `CC1CCc2c(sc(NC(=O)COc3ccccc3C=O)c2C#N)C1` (centres undefined) came in with a half-maximal inhibitory concentration (IC50) of more than 50 µM.

Turning to `CC1CCc2c(sc(NC(=O)COc3ccc(C=O)cc3)c2C#N)C1` (centres undefined), the IC50 in data set [2] was found to be 24.28 µM.

In the case of `COc1ccc(CNC(=O)Nc2sc3c(c2C#N)CCCC3)c(OC)c1`, the inhibition in data set [1] turned out to be 73.9%. In data set [2], this compound displayed an IC50 of 15.32 µM. Moreover, the concentration in solution in data set [5] (solubility) came to 28.6 µM (≈ 10.6 µg/mL). In addition, the remaining at 1 h in data set [6] is 51.4%. The remaining at 6 h in data set [7] was 28.5%. Besides, in [8], the remaining at 0.5 h was 78%.

As for `COc1cc(C=O)ccc1OCC(=O)Nc1sc2c(c1C#N)CCC1(C2)OCCO1`, the inhibition in data set [1] was determined as 15.7%.

On to `COc1cc(C=O)cc(OCC(=O)Nc2sc3c(c2C#N)CCC(C)C3)c1OC` (racemic), for which the values for the IC50 in [2] and in data set [3] were 2.11 µM and 36.9 µM, respectively. Further, the Selectivity Index in data set [9] is 17.5. The same compound had a CC50 in data set [4] of more than 200 µM. The compound also came in with a solubility in [5] of 25 µM (≈ 10.4 µg/mL). Moreover, the remaining at 1 h in data set [6] was determined as 61.3%. The remaining at 6 h in data set [7] stood at 50.6%. In addition, the remaining at 0.5 h in [8] is 84.3%. For the same compound, the Activity entry in [10] is “Dose-dependent-effect”. The Ki in data set [11] was found to be 5.56 µM.

As for `CCOC(=O)C1CCc2sc(NC(=O)COc3ccc(C=O)cc3OC)c(C#N)c21` (centres undefined), the inhibition in data set [1] came to 61.5%. The same compound came in with an IC50 in [2] of 69.78 µM.

For `COc1cc(C=O)ccc1OCC(=O)Nc1sc2c(c1C#N)CCC2`, the inhibition in [1] turned out to be 70.4%. This compound displayed an IC50 in data set [2] of 35.6 µM.

For the compound `CC1CCc2c(sc(NC(=O)COc3cccc(C=O)c3)c2C#N)C1` (centres undefined), in [2], the IC50 stood at 20.85 µM.

Consider `COc1cc(C=O)ccc1OCC(=O)Nc1sc2c(c1C#N)CCOC2`, for which the inhibition in data set [1] is 67.3%. The compound also yielded an IC50 in data set [2] of 32.38 µM.

For the compound `COc1cc(C=O)ccc1OCC(=O)Nc1sc2c(c1C#N)CCCC2`, in data set [1], the inhibition was 70.4%. In addition, the IC50 in data set [2] was determined as 14.09 µM.

In data set [2], `Cc1cc(C=O)ccc1OCC(=O)Nc1sc2c(c1C#N)CCC(C)C2` (centres undefined) gave an IC50 of 35.55 µM.

On to `COc1cc(C=O)ccc1OCC(=O)Nc1sc2c(c1C#N)CCC(C)C2` (centres undefined), for which the inhibition in [1] worked out at 93.4%. Moreover, the 50% inhibitory concentration (IC50) is 7.42 µM in [2] and 51.7 µM in [3]. Further, the Selectivity Index in data set [9] stood at 6.97. The same compound came in with a 50% cytotoxic concentration (CC50) in data set [4] of more than 200 µM. The compound further returned a solubility in data set [5] of 28.6 µM (≈ 11 µg/mL). Also, in data set [6], the remaining at 1 h came to 72.9%. The remaining at 6 h in [7] was determined as 33.6%. Besides, the remaining at 0.5 h in data set [8] was 83.3%.

With `COc1ccc(C=O)cc1OCC(=O)Nc1sc2c(c1C#N)CCC(C)C2` (centres undefined), the IC50 in data set [2] is 4.69 µM; in data set [3] it was 38.5 µM. Also, in [9], the Selectivity Index was 8.19. Also, the CC50 in [4] is more than 200 µM. This compound yielded a solubility in data set [5] of 25 µM (≈ 9.61 µg/mL). Moreover, in data set [6], the remaining at 1 h is 35%. For the same compound, the remaining at 6 h in data set [7] turned out to be 0%. Moreover, in data set [8], the remaining at 0.5 h was 76.5%.

`COc1ccc(C=O)c(OCC(=O)Nc2sc3c(c2C#N)CCC(C)C3)c1` (centres undefined): the half-maximal inhibitory concentration (IC50) was 7.17 µM in data set [2] and 65.7 µM in [3]. The Selectivity Index in [9] turned out to be 9.2. The compound also displayed a CC50 in data set [4] of more than 200 µM. The same compound returned a solubility in data set [5] of 22.2 µM (≈ 8.53 µg/mL). Also, the remaining at 1 h in data set [6] was 42.7%. Further, in [7], the remaining at 6 h was 30%. Moreover, the remaining at 0.5 h in [8] is 57%.

What is called inhibition is the relative decrease from the control value, in per cent. For orientation: IC50 means the concentration that gives 50% inhibition. High values mean weaker potency in that assay, low ones greater potency in that assay. What is called CC50 is the concentration that lowers cell viability or growth by half. Low readings indicate harm at low concentration, high ones better tolerance by the cells. In general, solubility refers to how much of the substance goes into solution per volume. In general, Ki refers to a dissociation constant, usually derived from enzyme kinetics or from competition with a known ligand.
